Assay type in all cases: in vivo
Assay [1] relates to Alopecurus myosuroides (ALOMY). As to the kind of experiment: Test Example 1 pre-emergence herbicidal activity. The conditions noted are these: Alopecurus myosuroides, 480 h, rate 250 g/ha, evaluated 20 days later, read-out: Pre-emergence activity ALOMY (100=total damage to plant; 0=no damage to plant). In short, it runs like this:
(§1)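 Sow in pots of standard soil → grow 1 day (pre-emergence) or 10 days (post-emergence) in glasshouse → spray aqueous formulated compound → grow on under optimum conditions → score damage 0–100 at day 20 (pre) or day 15 (post).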

Assay [2] relates to Avena fatua (AVEFA). As to the kind of experiment: Test Example 1 pre-emergence herbicidal activity. The conditions noted are these: Avena fatua, 480 h, rate 250 g/ha, evaluated 20 days later, read-out: Pre-emergence activity AVEFA (100=total damage to plant; 0=no damage to plant). In a few lines:
as §1

Assay [3] concerns Digitaria sanguinalis (DIGSA). As to the kind of experiment: Test Example 1 pre-emergence herbicidal activity. The conditions noted are these: Digitaria sanguinalis, 480 h, rate 250 g/ha, evaluated 20 days later, read-out: Pre-emergence activity DIGSA (100=total damage to plant; 0=no damage to plant). In short, it runs like this: as §1
For assay [4], the system named is Echinochloa crus-galli (ECHCG). The experiment in a line: Test Example 1 pre-emergence herbicidal activity. The settings on record: Echinochloa crus-galli, 480 h, rate 250 g/ha, evaluated 20 days later, read-out: Pre-emergence activity ECHCG (100=total damage to plant; 0=no damage to plant). In short, it runs like this:
as §1

The subject of assay [5] is Lolium perenne (LOLPE). As to the kind of experiment: Test Example 1 pre-emergence herbicidal activity. The settings on record: Lolium perenne, 480 h, rate 250 g/ha, evaluated 20 days later, read-out: Pre-emergence activity LOLPE (100=total damage to plant; 0=no damage to plant). In short, it runs like this: as §1
For assay [6], the system named is Setaria faberi (SETFA). As to the kind of experiment: Test Example 1 pre-emergence herbicidal activity. The settings on record: Setaria faberi, 480 h, rate 250 g/ha, evaluated 20 days later, read-out: Pre-emergence activity SETFA (100=total damage to plant; 0=no damage to plant). In a few lines:
as §1

In assay [7] the test system is Alopecurus myosuroides (ALOMY). As to the kind of experiment: Test Example 1 post-emergence herbicidal activity. The settings on record: 360 h, rate 125 g/ha, evaluated 15 days later, read-out: Post-emergence activity ALOMY (100=total damage to plant; 0=no damage to plant). In short, it runs like this: as §1
In assay [8] the test system is Avena fatua (AVEFA). As to the kind of experiment: Test Example 1 post-emergence herbicidal activity. The settings on record: 360 h, rate 125 g/ha, evaluated 15 days later, read-out: Post-emergence activity AVEFA (100=total damage to plant; 0=no damage to plant). In a few lines: as §1
In assay [9] the test system is Digitaria sanguinalis (DIGSA). As to the kind of experiment: Test Example 1 post-emergence herbicidal activity. The conditions noted are these: 360 h, rate 125 g/ha, evaluated 15 days later, read-out: Post-emergence activity DIGSA (100=total damage to plant; 0=no damage to plant). In short, it runs like this:
as §1

In assay [10] the test system is Echinochloa crus-galli (ECHCG). As to the kind of experiment: Test Example 1 post-emergence herbicidal activity. The settings on record: 360 h, rate 125 g/ha, evaluated 15 days later, read-out: Post-emergence activity ECHCG (100=total damage to plant; 0=no damage to plant). In short, it runs like this:
as §1

Assay [11] concerns Lolium perenne (LOLPE). The experiment in a line: Test Example 1 post-emergence herbicidal activity. The conditions noted are these: 360 h, rate 125 g/ha, evaluated 15 days later, read-out: Post-emergence activity LOLPE (100=total damage to plant; 0=no damage to plant). In a few lines:
as §1

Assay [12] concerns Setaria faberi (SETFA). The experiment in a line: Test Example 1 post-emergence herbicidal activity. The settings on record: 360 h, rate 125 g/ha, evaluated 15 days later, read-out: Post-emergence activity SETFA (100=total damage to plant; 0=no damage to plant). In short, it runs like this:
as §1

As for `Cc1cc(C)c(C2=C(O)[C@@H]3[C@@H]4O[C@@H](C[C@H]4/C=C/c4ccccc4)[C@@H]3C2=O)c(C)c1` [Example T98], the pest or weed control at 250 g/ha was 30% in assay [1]; 20% in assay [2]; 0% in assay [3]; 30% in assay [4]; 20% in assay [5]; 70% in assay [6]. Moreover, the pest or weed control at 125 g/ha worked out at 70% in [7]; 20% in assay [8]; 60% in assay [9]; 80% in [10]; 40% in assay [11]; 70% in assay [12].
For `CC[C@@H]1C[C@@H]2O[C@H]1[C@H]1C(O)=C(c3c(C)cc(C)cc3C)C(=O)[C@H]12` [Example T106], the pest or weed control at 250 g/ha in assay [1] worked out at 90%; in [2], 90%; in [3], 100%; in [4], 100%; in [5], 100%; in assay [6], 100%. For the same compound, the pest or weed control at 125 g/ha in assay [7] is 90%; in [8], 80%; in assay [9], 80%; in [10] it was 100%; in [11] it was 80%; in assay [12] it was 90%.
Regarding `CC[C@H]1C[C@@H]2O[C@H]1[C@H]1C(O)=C(c3c(C)cc(C)cc3C)C(=O)[C@H]12` [Example T107], the pest or weed control at 250 g/ha was 90% in assay [1]; 90% in assay [2]; 100% in assay [3]; 100% in [4]; 100% in [5]; 100% in assay [6]. The pest or weed control at 125 g/ha came to 100% in assay [7]; 90% in assay [8]; 100% in [9]; 100% in assay [10]; 90% in assay [11]; 100% in assay [12].
For `Cc1cc(C)c(C2=C(O)[C@H]3[C@@H](C2=O)[C@]2(C)CC(C)[C@@]3(C)O2)c(C)c1` (stereo partly drawn) [Example T125], the pest or weed control at 250 g/ha in assay [1] was determined as 70%; in [2], 70%; in assay [3] it was 100%; in assay [4], 100%; in [5], 100%; in [6], 100%. The pest or weed control at 125 g/ha amounted to 80% in assay [7]; 70% in assay [8]; 80% in assay [9]; 90% in assay [10]; 70% in assay [11]; 80% in assay [12].
As to `Cc1cc(C)c(C2=C(O)[C@@H]3[C@@H]4O[C@@H](C[C@H]4c4ccc(F)nc4)[C@@H]3C2=O)c(C)c1` [Example T129], the pest or weed control at 250 g/ha is 100% in assay [1]; 90% in [2]; 90% in assay [3]; 100% in [4]; 90% in [5]; 100% in [6]. In addition, the pest or weed control at 125 g/ha in assay [7] came to 80%; in assay [8] it was 80%; in [9], 80%; in [10] it was 100%; in [11] it was 70%; in [12] it was 100%.

These data come from patent publication US8754242B2, “Herbicides” (Syngenta Crop Protection LLC, priority 2007, dated 2014).
